Experimental data: US9693556B2, “Herbicidal pyridazinone derivatives” (SYNGENTA LIMITED, priority 2011, dated 2017)

Assays:
Format in all cases: in vivo
[1] = system: Ipomoea hederacea (IPOHE); experiment: Pre-emergence herbicidal glasshouse test on Ipomoea hederacea; settings: pre-emergence; 1000 g/h; evaluated after 13 days
Method in brief: (§1)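 Scored on a five-point scale (1 = 0-19% to 5 = 80-100% damage) 13 days after treatment. Application rate 1000 g/h in acetone/water (50:50) containing 0.5% Tween 20, sprayed one day post-sowing for pre-emergence or eight days for post-emergence; glasshouse at 24/16° C, 14 h light, 65% humidity.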

[2] = system: Alopecurus myosuroides (ALOMY); experiment: Pre-emergence herbicidal glasshouse test on Alopecurus myosuroides; settings: pre-emergence; 1000 g/h; evaluated after 13 days
Method in brief: as §1

Setaria faberi (SETFA) [3] = experiment: Post-emergence herbicidal glasshouse test on Setaria faberi; settings: post-emergence; 1000 g/h; evaluated after 13 days
Method in brief: as §1

[4] = system: Echinochloa crus-galli (ECHCG); experiment: Post-emergence herbicidal glasshouse test on Echinochloa crus-galli; settings: post-emergence; 1000 g/h; evaluated after 13 days
Method in brief: as §1

Solanum nigrum (SOLNI) [5] = experiment: Pre-emergence herbicidal glasshouse test on Solanum nigrum; settings: pre-emergence; 1000 g/h; evaluated after 13 days
Method in brief: as §1

Setaria faberi (SETFA) [6] = experiment: Pre-emergence herbicidal glasshouse test on Setaria faberi; settings: pre-emergence; 1000 g/h; evaluated after 13 days
Method in brief: as §1

[7] = system: Ipomoea hederacea (IPOHE); experiment: Post-emergence herbicidal glasshouse test on Ipomoea hederacea; settings: post-emergence; 1000 g/h; evaluated after 13 days
Method in brief: as §1

[8] = system: Alopecurus myosuroides (ALOMY); experiment: Post-emergence herbicidal glasshouse test on Alopecurus myosuroides; settings: post-emergence; 1000 g/h; evaluated after 13 days
Method in brief: as §1

[9] = system: Amaranthus retoflexus (AMARE); experiment: Post-emergence herbicidal glasshouse test on Amaranthus retoflexus; settings: post-emergence; 1000 g/h; evaluated after 13 days
Method in brief: as §1

Solanum nigrum (SOLNI) [10] = experiment: Post-emergence herbicidal glasshouse test on Solanum nigrum; settings: post-emergence; 1000 g/h; evaluated after 13 days
Method in brief: as §1

[11] = system: Echinochloa crus-galli (ECHCG); experiment: Pre-emergence herbicidal glasshouse test on Echinochloa crus-galli; settings: pre-emergence; 1000 g/h; evaluated after 13 days
Method in brief: as §1

[12] = system: Amaranthus retoflexus (AMARE); experiment: Pre-emergence herbicidal glasshouse test on Amaranthus retoflexus; settings: pre-emergence; 1000 g/h; evaluated after 13 days
Method in brief: as §1

## Cn1ncc(-c2cc(C(F)(F)F)ccc2F)c(O)c1=O [Compound 1.096]
[1]
  PRE Application IPOHE herbicidal damage (five point scale): 1 (1=0-19% damage)
[2]
  PRE Application ALOMY herbicidal damage (five point scale): 1 (1=0-19% damage)
Setaria faberi (SETFA) [3]
  POST Application SETFA herbicidal damage (five point scale): 1 (1=0-19% damage)
[4]
  POST Application ECHCG herbicidal damage (five point scale): 1 (1=0-19% damage)
Solanum nigrum (SOLNI) [5]
  PRE Application SOLNI herbicidal damage (five point scale): 1 (1=0-19% damage)
Setaria faberi (SETFA) [6]
  PRE Application SETFA herbicidal damage (five point scale): 1 (1=0-19% damage)
[7]
  POST Application IPOHE herbicidal damage (five point scale): 2 (2=20-39% damage)
[8]
  POST Application ALOMY herbicidal damage (five point scale): 1 (1=0-19% damage)
[9]
  POST Application AMARE herbicidal damage (five point scale): 1 (1=0-19% damage)
Solanum nigrum (SOLNI) [10]
  POST Application SOLNI herbicidal damage (five point scale): 1 (1=0-19% damage)
[11]
  PRE Application ECHCG herbicidal damage (five point scale): 1 (1=0-19% damage)
[12]
  PRE Application AMARE herbicidal damage (five point scale): 1 (1=0-19% damage)

## Cn1ncc(-n2ccc(C(F)(F)F)c(N3CCOCC3)c2=O)c(O)c1=O [Compound 1.026]
[1]
  PRE Application IPOHE herbicidal damage (five point scale): 5 (5=80-100% damage)
[2]
  PRE Application ALOMY herbicidal damage (five point scale): 5 (5=80-100% damage)
Setaria faberi (SETFA) [3]
  POST Application SETFA herbicidal damage (five point scale): 5 (5=80-100% damage)
[4]
  POST Application ECHCG herbicidal damage (five point scale): 5 (5=80-100% damage)
Solanum nigrum (SOLNI) [5]
  PRE Application SOLNI herbicidal damage (five point scale): 5 (5=80-100% damage)
Setaria faberi (SETFA) [6]
  PRE Application SETFA herbicidal damage (five point scale): 5 (5=80-100% damage)
[7]
  POST Application IPOHE herbicidal damage (five point scale): 5 (5=80-100% damage)
[8]
  POST Application ALOMY herbicidal damage (five point scale): 5 (5=80-100% damage)
[9]
  POST Application AMARE herbicidal damage (five point scale): 5 (5=80-100% damage)
Solanum nigrum (SOLNI) [10]
  POST Application SOLNI herbicidal damage (five point scale): 5 (5=80-100% damage)
[11]
  PRE Application ECHCG herbicidal damage (five point scale): 5 (5=80-100% damage)
[12]
  PRE Application AMARE herbicidal damage (five point scale): 5 (5=80-100% damage)

## Cn1ncc(-n2ccc(C(F)(F)F)c(-c3ccc(C#N)cc3)c2=O)c(O)c1=O [Compound 7.031]
[1]
  PRE Application IPOHE herbicidal damage (five point scale): 5 (5=80-100% damage)
[2]
  PRE Application ALOMY herbicidal damage (five point scale): 5 (5=80-100% damage)
Setaria faberi (SETFA) [3]
  POST Application SETFA herbicidal damage (five point scale): 5 (5=80-100% damage)
[4]
  POST Application ECHCG herbicidal damage (five point scale): 5 (5=80-100% damage)
Solanum nigrum (SOLNI) [5]
  PRE Application SOLNI herbicidal damage (five point scale): 5 (5=80-100% damage)
Setaria faberi (SETFA) [6]
  PRE Application SETFA herbicidal damage (five point scale): 5 (5=80-100% damage)
[7]
  POST Application IPOHE herbicidal damage (five point scale): 5 (5=80-100% damage)
[8]
  POST Application ALOMY herbicidal damage (five point scale): 5 (5=80-100% damage)
[9]
  POST Application AMARE herbicidal damage (five point scale): 5 (5=80-100% damage)
Solanum nigrum (SOLNI) [10]
  POST Application SOLNI herbicidal damage (five point scale): 5 (5=80-100% damage)
[11]
  PRE Application ECHCG herbicidal damage (five point scale): 5 (5=80-100% damage)
[12]
  PRE Application AMARE herbicidal damage (five point scale): 5 (5=80-100% damage)

## COCn1ncc(-c2ccccc2[S+](C)[O-])c(O)c1=O (stereo not drawn) [Compound 1.145]
[1]
  PRE Application IPOHE herbicidal damage (five point scale): 1 (1=0-19% damage)
[2]
  PRE Application ALOMY herbicidal damage (five point scale): 1 (1=0-19% damage)
Setaria faberi (SETFA) [3]
  POST Application SETFA herbicidal damage (five point scale): 5 (5=80-100% damage)
[4]
  POST Application ECHCG herbicidal damage (five point scale): 5 (5=80-100% damage)
Solanum nigrum (SOLNI) [5]
  PRE Application SOLNI herbicidal damage (five point scale): 2 (2=20-39% damage)
Setaria faberi (SETFA) [6]
  PRE Application SETFA herbicidal damage (five point scale): 2 (2=20-39% damage)
[7]
  POST Application IPOHE herbicidal damage (five point scale): 5 (5=80-100% damage)
[8]
  POST Application ALOMY herbicidal damage (five point scale): 3 (3=40-59% damage)
[9]
  POST Application AMARE herbicidal damage (five point scale): 5 (5=80-100% damage)
Solanum nigrum (SOLNI) [10]
  POST Application SOLNI herbicidal damage (five point scale): 5 (5=80-100% damage)
[11]
  PRE Application ECHCG herbicidal damage (five point scale): 4 (4=60-79% damage)
[12]
  PRE Application AMARE herbicidal damage (five point scale): 5 (5=80-100% damage)
